Reference: patent US20010021705A1, “Disodium alendronate formulations” (MERCK & CO., Inc., priority 1995, published 2001)
Where a name gives a salt, the structure may show the parent alone. Read-outs that look alike come from different tables or passages of the source.

Conditions: for aqueous pH: concentration not stated (summary)

Row | SMILES | solution pH (at 50 mg/ml) | aqueous pH (Disodium Salt Monohydrate) | solution pH (at 8 mg/ml) | aqueous pH
1 | NCCCC(O)(P(=O)(O)O)P(=O)(O)O [disodium salt, 4-Amino-1-Hydroxy-Butylidene-1,1-Bisphosphonic Acid Disodium Salt Monohydrate] | 8.7 | about 8.7 |  | 
2 | NCCCC(O)(P(=O)(O)O)P(=O)(O)O [free acid, 4-amino-1-hydroxybutylidene-1,1-bisphosphonic acid] |  |  | 2.2 | about 2.2
